Experiments:
Type in all cases: cell-based, human
HepG2 cell line [1] = test: L-lactate in the culture medium of HepG2 cells, enzymatic test; conditions: ddC 177 nM; for Lactate values in the medium in percent of the control: control without ddC and without uridine, Day 0 = 100%
Description: (§1) Cell culture. The HepG2 cell line, a human hepatoma cell line, is taken from the American Type Culture Collection (ATCC No. HB-8065). It is cultured at 37° C. in a 5% CO2 atmosphere. The culture medium is Dulbecco's Modified Eagle Medium (DMEM-containing 4.5 g/l glucose, 110 mg/l pyruvate, 4 mg/l nicotinamide, 4 mg/l pyridoxal hydrochloride, 4 mg/l thiamine and 0.4 riboflavin), supplemented with 10% fetal bovine serum (50 ml FCS, Mycoplex PAA Laboratories, Linz). On day 1, 2.7×10^6 cells are placed in 75 ml culture flasks (Falcon, Becton Dickinson, USA). On days 5, 10, 15, 20 and 25, the cells are trypsinized and counted; 2.7×10^6 cells are again spread out. The medium is changed on each day of trypsinization and on the third day after replating. Materials: Riboflavin (vitamin B2), thiamine (vitamin B1), ascorbic acid (vitamin C), uridine and ddC are purchased from Sigma (USA). The concentrations of uridine are given in the following tables; ddC is used in a concentration of 177 nM, which corresponds to the steady-state plasma levels of patients under HAART. A vitamin cocktail consisting of 7.125 mg/l riboflavin, 7.125 mg/l thiamine and 142.5 mg/l vitamin C is used. These pharmacological concentrations exceed the daily requirement by a factor of about one hundred, and meet the safe upper limits according to the recommendations of the European Union for these micro-nutrients. Lactic acid: 1.5 ml of the remainder of the culture is removed in each case immediately before the trypsinization and the L-lactate in it is determined enzymatically with the lactate test-kit from Roche Diagnostics (order No.1822837) in an automatic analysis device (Roche/Hitachi 917) according to the recommendations of the manufacturer.

HepG2 cell line [2] = test: Number of HepG2 cells on the day of trypsinization (survival) in the presence of ddC; conditions: ddC 177 nM; for Number of cells on the day of the trypsinization: HepG2, uridine 200 μM or vitamin cocktail where named
Description: as §1, with “micro-nutrients.” for “micro-nutrients. Lactic acid: 1.5 ml of the remainder of the culture is removed in each case immediately before the trypsinization and the L-lactate in it is determined enzymatically with the lactate test-kit from Roche Diagnostics (order No.1822837) in an automatic analysis device (Roche/Hitachi 917) according to the recommendations of the manufacturer.”

HepG2 cell line [3] = test: Intracellular lipids of HepG2 cells, Oil-Red-O staining
Description: as §1, with “The concentrations of uridine are given in the following tables; ddC is used in a concentration of 177 nM, which corresponds to the steady-state plasma levels of patients under HAART.” left out, “Determining the intracellular lipids: Intracellular lipid droplets' are stained by means” for “Lactic acid: 1.5 ml”, “Oil-Red-O (Sigma, USA). […]” for “the remainder of the culture is removed in each case immediately before the trypsinization and the L-lactate in it is determined enzymatically with the lactate test-kit from Roche Diagnostics (order No.1822837) in an automatic analysis device (Roche/Hitachi 917) according to the recommendations of the manufacturer.”

[4] = tested on: mitochondrial DNA (mtDNA); test: Quantification of mitochondrial DNA by Southern Blot (M/N ratio) in HepG2 cells; conditions: ddC 177 nM; for Content of mitochondrial DNA, M/N-ratio in % of the control: control = HepG2-cells without ddC and without uridine
Description: Cell culture. The HepG2 cell line, a human hepatoma cell line, is taken from the American Type Culture Collection (ATCC No. HB-8065). It is cultured at 37° C. in a 5% CO2 atmosphere. The culture medium is Dulbecco's Modified Eagle Medium (DMEM-containing 4.5 g/l glucose, 110 mg/l pyruvate, 4 mg/l nicotinamide, 4 mg/l pyridoxal hydrochloride, 4 mg/l thiamine and 0.4 riboflavin), supplemented with 10% fetal bovine serum (50 ml FCS, Mycoplex PAA Laboratories, Linz). On day 1, 2.7×10^6 cells are placed in 75 ml culture flasks (Falcon, Becton Dickinson, USA). On days 5, 10, 15, 20 and 25, the cells are trypsinized and counted; 2.7×10^6 cells are again spread out. The medium is changed on each day of trypsinization and on the third day after replating. Materials: Riboflavin (vitamin B2), thiamine (vitamin B1), ascorbic acid (vitamin C), uridine and ddC are purchased from Sigma (USA). The concentrations of uridine are given in the following tables; ddC is used in a concentration of 177 nM, which corresponds to the steady-state plasma levels of patients under HAART. A vitamin cocktail consisting of 7.125 mg/l riboflavin, 7.125 mg/l thiamine and 142.5 mg/l vitamin C is used. These pharmacological concentrations exceed the daily requirement by a factor of about one hundred, and meet the safe upper limits according to the recommendations of the European Union for these micro-nutrients. Quantification of mitochondrial DNA (mtDNA) by means of Southern Blot: The content of mtDNA is determined by a well-known Southern-Blot technique (C. T. Moraes et al., “Quantitative Defects of Mitochondrial DNA”, in: S. DiMauro and D. C. Wallace, “Mitochondrial DNA in Human Pathology”, Raven Press, New York 1993, Chapter 8, pages 97–108). Genomic DNA is extracted from the fatty tissue and cut with the restriction endonuclease Pvull. Five μg of the cut material are separated electrophoretically on a 0.8% agarose gel and transferred to a nylon membrane. The mtDNA is tested with a 12.9 kBp mtDNA fragment (which comprises the nucleotide positions 3470 and 16379 of human mtDNA (S. Anderson et al., Nature 9, 457–65 (1981), and which is marked by means stochastically binding primers with digoxigenin). In order to have an internal standard, digoxigen labeled nuclear DNA (nDNA), which hybridizes to the copy-number 18S-ribosomal DNA gene, serves as a second probe. The signals for mtDNA and nDNA are visualized, according to the recommendations of the manufacturer (Boehringer Mannheim, Germany), with a monoclonal antibody against digoxigenin, which is conjugated with alkaline phosphatase. The signal intensities are quantified by computer by means of standard software. The mtDNA content is expressed as the mtDNA/nDNA (M/N) ratio.

SMILES | Lactate values in the medium in percent of the control (HepG2 cell line [1]; Day 6) [%] | Lactate values in the medium in percent of the control (HepG2 cell line [1]; Day 10) [%] | Lactate values in the medium in percent of the control (HepG2 cell line [1]; Day 15) [%] | Lactate values in the medium in percent of the control (HepG2 cell line [1]; Day 20) [%] | Lactate values in the medium in percent of the control (HepG2 cell line [1]; Day 25) [%] | Number of cells on the day of the trypsinization (HepG2 cell line [2]; Day 5, 2.7×10^6 cells replated every 5 days) | Number of cells on the day of the trypsinization (HepG2 cell line [2]; Day 10) | Number of cells on the day of the trypsinization (HepG2 cell line [2]; Day 20) | Number of cells on the day of the trypsinization (HepG2 cell line [2]; Day 25) | Intracellular lipids / steatotic changes, microscopic image (HepG2 cell line [3]; Day 20, Oil-Red-O, 177 nM ddC, 200 μM uridine as printed) | Content of mitochondrial DNA, M/N-ratio in % of the control ([4]; Day 0) [%] | Content of mitochondrial DNA, M/N-ratio in % of the control ([4]; Day 5) [%] | Content of mitochondrial DNA, M/N-ratio in % of the control ([4]; Day 10) [%] | Content of mitochondrial DNA, M/N-ratio in % of the control ([4]; Day 15) [%] | Content of mitochondrial DNA, M/N-ratio in % of the control ([4]; Day 20) [%] | Content of mitochondrial DNA, M/N-ratio in % of the control ([4]; Day 25) [%] | Production of lactic acid (HepG2 cell line [1]; HepG2, uridine 200 μM) | Survival of the HepG2-cells in the presence of ddC (HepG2 cell line [2]; uridine 200 μM, 25-day incubation) | Compensation for the side effects of ddC (overall, see also Tables 1 to 3) (HepG2 cell line [3]; summary of lipid staining, cell number, mtDNA and lactate) | Reduction of the mtDNA ([4]; HepG2, uridine 200 μM)
Nc1ccn([C@H]2CC[C@@H](CO)O2)c(=O)n1 [ddC, dideoxycytidine] | 109.2 | 129.5 | 220.1 | 374.9 | 392.5 | 110.0 100,000s | 98.5 100,000s | 66.2 100,000s | 38.4 100,000s | clearly fewer cells are found, which however, are relatively large and red-colored | 100.0 | 25.6 | 25.1 | 11.5 | 8.3 | 8.4 |  |  |  | 
O=c1ccn([C@@H]2O[C@H](CO)[C@@H](O)[C@H]2O)c(=O)[nH]1 [uridine] |  |  |  |  |  |  |  |  |  |  |  |  |  |  |  |  | diminished by the uridine | normalizes the survival of the HepG2-cells in the presence of ddC | can compensate for the side effects of ddC | diminishes the reduction of the mtDNA

— patent US6992072B2, “Combating side-effects” (Pharma Nord ApS, priority 2001, dated 2006)
